Experimental data: ChEMBL document CHEMBL1201862, “PubChem BioAssay data set” (2004)
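The compound was tested at five concentrations on cells cultured in 96-well plates, with a 48-hour exposure period. Here, GI50 denotes the concentration required for 50% inhibition of growth.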 Active and inactive are the calls of the source. No stated cut-off is given here; in the data, active = GI50 up to about 1.1 µM and inactive = higher.

What was measured:
Assay in all cases: growth of human tumour cells (NCI), 48 h
HCT-116 = test system: HCT-116
NCI-H460 = test system: NCI-H460
CCRF-CEM = test system: CCRF-CEM
TK-10 = test system: TK-10
SF-539 = test system: SF-539
SF-295 = test system: SF-295
KM12 = test system: KM12
RPMI-8226 = test system: RPMI-8226
SK-MEL-28 = test system: SK-MEL-28
ACHN = test system: ACHN
OVCAR-4 = test system: OVCAR-4
SN12C = test system: SN12C
SNB-75 = test system: SNB-75
CAKI-1 = test system: CAKI-1
Malme-3M = test system: Malme-3M
K562 = test system: K562
SF-268 = test system: SF-268
HT-29 = test system: HT-29
786-0 = test system: 786-0
MOLT-4 = test system: MOLT-4
KM-20L2 = test system: KM-20L2
M14 = test system: M14
HOP-62 = test system: HOP-62
SK-MEL-2 = test system: SK-MEL-2
NCI-H23 = test system: NCI-H23
A498 = test system: A498
OVCAR-5 = test system: OVCAR-5
EKVX = test system: EKVX
OVCAR-8 = test system: OVCAR-8
SW-620 = test system: SW-620
HCC 2998 = test system: HCC 2998
SNB-78 = test system: SNB-78
SNB-19 = test system: SNB-19
U-251 = test system: U-251
A549 = test system: A549
UACC-257 = test system: UACC-257
OVCAR-3 = test system: OVCAR-3
LXFL 529 = test system: LXFL 529
UO-31 = test system: UO-31
NCI-H522 = test system: NCI-H522
DLD-1 = test system: DLD-1
XF498 = test system: XF498
SK-MEL-5 = test system: SK-MEL-5
MDA-MB-435 = test system: MDA-MB-435
SK-OV-3 = test system: SK-OV-3
HOP-92 = test system: HOP-92
LOX IMVI = test system: LOX IMVI
T47D = test system: T47D
SR = test system: SR
BT-549 = test system: BT-549
UACC-62 = test system: UACC-62
MCF7 = test system: MCF7
IGROV-1 = test system: IGROV-1
MDA-MB-231 = test system: MDA-MB-231
RXF 393 = test system: RXF 393
PC-3 = test system: PC-3
NCI/ADR-RES = test system: NCI/ADR-RES
COLO 205 = test system: COLO 205
NCI-H226 = test system: NCI-H226
DU-145 = test system: DU-145
MDA-N = test system: MDA-N
Hs-578T = test system: Hs-578T
HL-60 = test system: HL-60
HCT-15 = test system: HCT-15
M19-MEL = test system: M19-MEL
DMS-273 = test system: DMS-273
DMS-114 = test system: DMS-114

COc1cc2c(cc1OC)C1Cc3ccc(OC)c(OC)c3C[N+]1([O-])CC2 (configuration not stated)
GI50 (HCT-116): > 100 µM (inactive) | GI50 (NCI-H460): > 100 µM (inactive) | GI50 (CCRF-CEM): > 100 µM (inactive) | GI50 (TK-10): > 100 µM (inactive) | GI50 (SF-539): > 100 µM (inactive) | GI50 (SF-295): > 100 µM (inactive) | GI50 (KM12): > 100 µM (inactive) | GI50 (RPMI-8226): 74.5 µM (inactive) | GI50 (SK-MEL-28): > 100 µM (inactive) | GI50 (ACHN): > 100 µM (inactive) | GI50 (OVCAR-4): > 100 µM (inactive) | GI50 (SN12C): > 100 µM (inactive) | GI50 (SNB-75): > 100 µM (inactive) | GI50 (CAKI-1): > 100 µM (inactive) | GI50 (Malme-3M): > 100 µM (inactive) | GI50 (K562): > 100 µM (inactive) | GI50 (SF-268): > 100 µM (inactive) | GI50 (HT-29): > 100 µM (inactive) | GI50 (786-0): > 100 µM (inactive) | GI50 (MOLT-4): > 100 µM (inactive) | GI50 (KM-20L2): > 100 µM (inactive) | GI50 (M14): > 100 µM (inactive) | GI50 (HOP-62): > 100 µM (inactive) | GI50 (SK-MEL-2): > 100 µM (inactive) | GI50 (NCI-H23): > 100 µM (inactive) | GI50 (A498): > 100 µM (inactive) | GI50 (OVCAR-5): > 100 µM (inactive) | GI50 (EKVX): > 100 µM (inactive) | GI50 (OVCAR-8): > 100 µM (inactive) | GI50 (SW-620): > 100 µM (inactive) | GI50 (HCC 2998): > 100 µM (inactive) | GI50 (SNB-78): > 100 µM (inactive) | GI50 (SNB-19): > 100 µM (inactive) | GI50 (U-251): > 100 µM (inactive) | GI50 (A549): > 100 µM (inactive) | GI50 (UACC-257): > 100 µM (inactive) | GI50 (OVCAR-3): > 100 µM (inactive) | GI50 (LXFL 529): > 100 µM (inactive) | GI50 (UO-31): > 100 µM (inactive) | GI50 (NCI-H522): > 100 µM (inactive) | GI50 (DLD-1): > 100 µM (inactive) | GI50 (XF498): > 100 µM (inactive) | GI50 (SK-MEL-5): > 100 µM (inactive)

Cn1c2ccccc2n2c3ccccc3c(=O)c(C#N)c12
GI50 (HCT-116): 4.19 µM (inactive) | GI50 (MDA-MB-435): 71.8 µM (inactive) | GI50 (SK-OV-3): 27.3 µM (inactive) | GI50 (HOP-92): 15.3 µM (inactive) | GI50 (NCI-H460): 3.23 µM (inactive) | GI50 (CCRF-CEM): 8.38 µM (inactive) | GI50 (TK-10): > 55 µM (inactive) | GI50 (LOX IMVI): 4.38 µM (inactive) | GI50 (SF-539): 13 µM (inactive) | GI50 (SF-295): 12.6 µM (inactive) | GI50 (KM12): 12 µM (inactive) | GI50 (RPMI-8226): 3.44 µM (inactive) | GI50 (SK-MEL-28): > 83.4 µM (inactive) | GI50 (T47D): 17.6 µM (inactive) | GI50 (ACHN): 2.91 µM (inactive) | GI50 (OVCAR-4): > 100 µM (inactive) | GI50 (SN12C): 17.9 µM (inactive) | GI50 (SNB-75): 15 µM (inactive) | GI50 (CAKI-1): 3.85 µM (inactive) | GI50 (Malme-3M): 4.27 µM (inactive) | GI50 (K562): 9.79 µM (inactive) | GI50 (SR): 2.84 µM (inactive) | GI50 (BT-549): 43.2 µM (inactive) | GI50 (SF-268): 10.4 µM (inactive) | GI50 (HT-29): 4.53 µM (inactive) | GI50 (786-0): 6.01 µM (inactive) | GI50 (MOLT-4): 2.96 µM (inactive) | GI50 (M14): > 75.3 µM (inactive) | GI50 (UACC-62): 8.11 µM (inactive) | GI50 (HOP-62): 19.2 µM (inactive) | GI50 (SK-MEL-2): 48.8 µM (inactive) | GI50 (MCF7): 10.1 µM (inactive) | GI50 (NCI-H23): 8.24 µM (inactive) | GI50 (IGROV-1): 6.01 µM (inactive) | GI50 (A498): 18.3 µM (inactive) | GI50 (OVCAR-5): > 70 µM (inactive) | GI50 (EKVX): 18.7 µM (inactive) | GI50 (MDA-MB-231): 13.9 µM (inactive) | GI50 (OVCAR-8): 3.96 µM (inactive) | GI50 (RXF 393): 40.7 µM (inactive) | GI50 (PC-3): 22.8 µM (inactive) | GI50 (SW-620): 4.62 µM (inactive) | GI50 (HCC 2998): 6.56 µM (inactive) | GI50 (SNB-19): 16.5 µM (inactive) | GI50 (U-251): 12 µM (inactive) | GI50 (A549): 4.94 µM (inactive) | GI50 (UACC-257): 55.6 µM (inactive) | GI50 (NCI/ADR-RES): 4.46 µM (inactive) | GI50 (COLO 205): 9.2 µM (inactive) | GI50 (OVCAR-3): > 100 µM (inactive) | GI50 (UO-31): 4.14 µM (inactive) | GI50 (NCI-H522): 4.29 µM (inactive) | GI50 (NCI-H226): 2.68 µM (inactive) | GI50 (DU-145): 12.6 µM (inactive) | GI50 (MDA-N): > 48.5 µM (inactive) | GI50 (Hs-578T): 13.2 µM (inactive) | GI50 (HL-60): 3.41 µM (inactive) | GI50 (SK-MEL-5): 2.27 µM (inactive) | GI50 (HCT-15): 6.62 µM

O=c1c2cc3c(=O)n(CCc4ccccc4CO)c(=O)c3cc2c(=O)n1CCc1ccccc1CO
GI50 (HCT-116): > 100 µM (inactive) | GI50 (SK-OV-3): > 100 µM (inactive) | GI50 (NCI-H460): > 100 µM (inactive) | GI50 (CCRF-CEM): > 100 µM (inactive) | GI50 (TK-10): > 100 µM (inactive) | GI50 (LOX IMVI): > 100 µM (inactive) | GI50 (SF-539): > 100 µM (inactive) | GI50 (SF-295): 46.6 µM (inactive) | GI50 (KM12): > 100 µM (inactive) | GI50 (M19-MEL): > 100 µM (inactive) | GI50 (SK-MEL-28): > 100 µM (inactive) | GI50 (ACHN): > 100 µM (inactive) | GI50 (OVCAR-4): > 100 µM (inactive) | GI50 (SN12C): > 100 µM (inactive) | GI50 (SNB-75): > 100 µM (inactive) | GI50 (Malme-3M): > 100 µM (inactive) | GI50 (K562): > 100 µM (inactive) | GI50 (SF-268): > 100 µM (inactive) | GI50 (HT-29): > 100 µM (inactive) | GI50 (MOLT-4): > 100 µM (inactive) | GI50 (UACC-62): > 100 µM (inactive) | GI50 (SK-MEL-2): > 100 µM (inactive) | GI50 (NCI-H23): > 100 µM (inactive) | GI50 (IGROV-1): > 100 µM (inactive) | GI50 (A498): > 100 µM (inactive) | GI50 (DMS-273): > 100 µM (inactive) | GI50 (OVCAR-8): > 100 µM (inactive) | GI50 (RXF 393): > 100 µM (inactive) | GI50 (SW-620): > 100 µM (inactive) | GI50 (SNB-78): > 100 µM (inactive) | GI50 (SNB-19): > 100 µM (inactive) | GI50 (U-251): > 100 µM (inactive) | GI50 (A549): > 100 µM (inactive) | GI50 (UACC-257): > 100 µM (inactive) | GI50 (OVCAR-3): > 100 µM (inactive) | GI50 (LXFL 529): > 100 µM (inactive) | GI50 (UO-31): > 100 µM (inactive) | GI50 (NCI-H522): > 100 µM (inactive) | GI50 (NCI-H226): > 100 µM (inactive) | GI50 (DLD-1): > 100 µM (inactive) | GI50 (DMS-114): > 100 µM (inactive) | GI50 (XF498): > 100 µM (inactive) | GI50 (HL-60): > 100 µM (inactive) | GI50 (SK-MEL-5): > 100 µM (inactive) | GI50 (HCT-15): > 100 µM
